Biological target: Sphingosine 1-phosphate receptor 1 (Homo sapiens, UniProt P21453)
Test: (§1) S1P Assay: Selected Compounds of the Examples were evaluated at Millipore Corporation, USA, using S1P1 receptor; [35S]-GTPgamaS binding assay. A [35S]-GTPgamaS binding assay at Millipore was conducted by GPCR Profiler¿ Custom Service Laboratory, Temecula, Calif., Millipore, Inc. to monitor dose-dependent agonist selectivity for selected Examples against the S1P1 receptors. The assay was completed with sample compounds subjected to an eight-point, four-fold dose response curve with starting concentration of 10 μM. Selectivity was determined upon initial addition of compounds followed by a 30 minute incubation at 30° C. Following compound incubation, bounded [35S]-GTPgamaS was determined by filtration and scintillation counting. Independently, selected compounds were evaluated for S1P1 and S1P3 agonistic activity. The S1P1 assay system was GTPgama-S35 binding in membranes from CHO K1 cells, expressing S1P1 human receptor. The S1P3 assay system was calcium mobilization in CHO K1 cells expressing S1P3 human receptor. There was no significant background response to S1P in the CHO K1 cells with either assay. Compounds were tested initially at a concentration of 10 μM.
Format: cell membranes

Sequence of Sphingosine 1-phosphate receptor 1 (P21453 whole entry): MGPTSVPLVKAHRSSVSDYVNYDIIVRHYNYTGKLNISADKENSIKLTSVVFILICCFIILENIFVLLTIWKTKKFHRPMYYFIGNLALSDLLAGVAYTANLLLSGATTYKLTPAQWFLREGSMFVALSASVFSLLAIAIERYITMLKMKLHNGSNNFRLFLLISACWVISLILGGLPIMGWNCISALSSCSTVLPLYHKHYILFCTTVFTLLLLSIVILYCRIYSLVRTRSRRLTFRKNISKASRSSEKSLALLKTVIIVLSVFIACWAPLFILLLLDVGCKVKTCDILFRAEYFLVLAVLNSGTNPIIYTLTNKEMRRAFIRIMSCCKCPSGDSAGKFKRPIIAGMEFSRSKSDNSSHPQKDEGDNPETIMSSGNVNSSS

EC50 [nM]	SMILES
1820	Cc1ccc(/C=C/c2nc(-c3ccc4oc(C(N)(CO)CO)cc4c3)no2)cc1
57	CCOc1ccc(-c2nc(-c3ccc4oc(C(N)(CO)CO)cc4c3)no2)cc1OCC

The next lines start with the compound.

SMILES	EC50 [nM]
CC(C)N(Cc1ccc(-c2ccc(CN3CC(C(=O)O)C3)cc2)cc1)c1ccc(F)cc1	600
COc1ccc(COc2ccc(CN3CC(C(=O)O)C3)cc2)cc1C12CC3CC(CC(C3)C1)C2	60
CCCCCCCCc1ccc(NC(=O)NCCC(=O)O)cc1	460

Biological target: Sphingosine 1-phosphate receptor 3 (Homo sapiens, UniProt Q99500)
Test: as §1
Format: cell membranes

Sequence of Sphingosine 1-phosphate receptor 3 (Q99500 whole entry): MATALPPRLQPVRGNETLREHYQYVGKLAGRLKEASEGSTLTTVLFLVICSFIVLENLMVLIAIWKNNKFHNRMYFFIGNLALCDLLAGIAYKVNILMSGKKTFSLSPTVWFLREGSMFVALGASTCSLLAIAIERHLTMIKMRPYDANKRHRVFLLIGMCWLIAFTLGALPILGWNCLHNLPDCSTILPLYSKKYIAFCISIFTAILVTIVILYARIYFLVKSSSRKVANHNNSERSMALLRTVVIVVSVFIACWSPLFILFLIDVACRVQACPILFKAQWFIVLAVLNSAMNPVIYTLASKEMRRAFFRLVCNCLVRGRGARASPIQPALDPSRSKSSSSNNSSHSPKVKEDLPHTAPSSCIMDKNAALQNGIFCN

EC50 [nM]	SMILES
380	CCOc1ccc(-c2nc(-c3ccc4oc(C(N)(CO)CO)cc4c3)no2)cc1OCC

Reference: ChEMBL document CHEMBL5725494, “S1P receptors modulators and their use thereof” (2017)
